Measurements from patent publication US20130102595A1 (Curis, Inc., priority 2011, published 2013).

What was measured:
[1] = target: T1, PI3Kα (p110α/p85α) (Homo sapiens, UniProt P42336); assay: PI3Kα ADP-Glo assay; format: biochemical; settings: 20 μM PIP2, 10 μM ATP, 30 minutes
T1 construct: GST (N); made in house; host or cells: Baculovirus-infected Sf9 cells
In short: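 Recombinant full-length human GST-p110α/His-p85α, co-expressed in Sf9 cells, was incubated 30 min at room temperature with 20 μM PIP2 and 10 μM ATP. The buffer was 50 mM HEPES pH 7.4, 150 mM NaCl, 5 mM MgCl2, 1 mM DTT, 3 µM orthovanadate and 0.5% DMSO. ADP formed was detected by ADP-Glo luminescence.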

[2] = test system: HDACs (HeLa cell nuclear extracts); assay: HDAC enzymatic activity, Biomol Color de Lys system; format: biochemical; settings: 1 hour, 25° C.
In short: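 HeLa nuclear extract incubated with serially diluted compound and […] artificial substrate in 50 mM Tris/Cl pH 8.0, 137 mM NaCl, 2.7 mM KCl, 1 mM MgCl2. Run 1 h at 25 °C, stopped with developer. Fluorescence read (ex 350-380, em 440-460 nm); IC50 from sigmoidal dose-response fit.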

T1 sequence (P42336 whole entry): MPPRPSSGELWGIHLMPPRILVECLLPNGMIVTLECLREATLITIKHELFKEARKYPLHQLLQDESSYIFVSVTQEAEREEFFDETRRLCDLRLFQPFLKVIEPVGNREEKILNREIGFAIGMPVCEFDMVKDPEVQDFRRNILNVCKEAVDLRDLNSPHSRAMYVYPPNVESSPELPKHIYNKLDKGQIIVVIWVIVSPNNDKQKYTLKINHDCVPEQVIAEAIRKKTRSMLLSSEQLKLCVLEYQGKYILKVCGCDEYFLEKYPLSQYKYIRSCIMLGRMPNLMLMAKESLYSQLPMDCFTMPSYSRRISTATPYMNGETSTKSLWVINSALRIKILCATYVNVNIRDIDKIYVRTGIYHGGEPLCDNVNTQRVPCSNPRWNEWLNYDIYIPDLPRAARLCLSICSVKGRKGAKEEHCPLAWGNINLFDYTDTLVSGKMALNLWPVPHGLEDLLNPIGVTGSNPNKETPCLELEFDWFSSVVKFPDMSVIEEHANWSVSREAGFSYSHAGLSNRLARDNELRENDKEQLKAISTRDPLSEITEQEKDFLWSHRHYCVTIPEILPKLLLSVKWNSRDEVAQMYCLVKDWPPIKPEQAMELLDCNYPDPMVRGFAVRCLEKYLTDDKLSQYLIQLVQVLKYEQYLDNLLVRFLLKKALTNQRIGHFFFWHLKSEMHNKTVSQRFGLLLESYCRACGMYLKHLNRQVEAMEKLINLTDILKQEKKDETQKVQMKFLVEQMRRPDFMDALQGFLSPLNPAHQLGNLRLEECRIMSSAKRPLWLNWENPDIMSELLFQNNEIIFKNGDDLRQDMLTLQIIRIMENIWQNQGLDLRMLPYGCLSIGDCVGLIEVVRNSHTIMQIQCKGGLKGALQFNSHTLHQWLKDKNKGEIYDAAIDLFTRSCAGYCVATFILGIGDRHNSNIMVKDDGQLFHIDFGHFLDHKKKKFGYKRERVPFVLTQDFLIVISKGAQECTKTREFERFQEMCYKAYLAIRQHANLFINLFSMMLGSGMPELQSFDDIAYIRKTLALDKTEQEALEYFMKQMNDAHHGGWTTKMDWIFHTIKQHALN
T1 sequence (P27986 whole entry partner): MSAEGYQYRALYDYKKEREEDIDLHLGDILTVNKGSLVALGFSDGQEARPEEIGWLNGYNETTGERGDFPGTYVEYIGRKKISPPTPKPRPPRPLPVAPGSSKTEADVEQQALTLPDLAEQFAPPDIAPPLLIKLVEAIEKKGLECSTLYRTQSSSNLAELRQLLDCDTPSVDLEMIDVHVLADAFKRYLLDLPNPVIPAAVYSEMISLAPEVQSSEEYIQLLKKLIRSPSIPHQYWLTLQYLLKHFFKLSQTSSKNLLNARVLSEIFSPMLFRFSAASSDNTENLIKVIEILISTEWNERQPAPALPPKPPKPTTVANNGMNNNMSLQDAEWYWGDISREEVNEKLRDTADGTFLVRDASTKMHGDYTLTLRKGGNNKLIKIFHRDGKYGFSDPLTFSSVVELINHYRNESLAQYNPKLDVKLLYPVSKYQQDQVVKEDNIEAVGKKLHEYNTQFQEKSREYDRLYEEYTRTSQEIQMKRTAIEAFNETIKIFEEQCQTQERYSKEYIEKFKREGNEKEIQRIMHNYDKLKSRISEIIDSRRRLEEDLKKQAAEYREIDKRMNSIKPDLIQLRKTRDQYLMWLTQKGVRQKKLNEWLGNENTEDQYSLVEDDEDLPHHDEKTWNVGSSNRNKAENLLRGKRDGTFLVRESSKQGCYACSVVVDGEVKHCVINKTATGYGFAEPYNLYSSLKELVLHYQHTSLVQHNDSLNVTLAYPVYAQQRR

Compound `CN(Cc1cc2nc(-c3ccc(C#N)cc3)nc(N3CCOCC3)c2s1)c1ncc(C(=O)NO)cn1` [Compound 146, 2-(((2-(4-cyanophenyl)-4-morpholinothieno[3,2-d]pyrimidin-6-yl)methyl)(methyl)amino)-N-hydroxypyrimidine-5-carboxamide] has a melting point of 214 to 216 °C, an IC50 [1] greater than 10000 nM and an IC50 [2] of less than 100 nM.

For `O=C(NO)c1ccc(NCc2cc3nc(-c4cccc5[nH]ncc45)nc(N4CCOCC4)c3s2)nc1` [Compound 76, 6-((2-(1H-indazol-4-yl)-4-morpholinothieno[3,2-d]pyrimidin-6-yl)methylamino)-N-hydroxynicotinamide], the melting point was 218 to 220 °C, the IC50 [1] was less than 100 nM and the IC50 [2] was less than 100 nM.

`CN(Cc1cc2nc(-c3cnc(CN)nc3)nc(N3CCOCC3)c2s1)c1ncc(C(=O)NO)cn1` [Compound 124, 2-(((2-(2-(aminomethyl)pyrimidin-5-yl)-4-morpholinothieno[3,2-d]pyrimidin-6-yl)methyl)(methyl)amino)-N-hydroxypyrimidine-5-carboxamide] gave a melting point greater than 300 °C, an IC50 [1] of less than 100 nM and an IC50 [2] of less than 100 nM.

`Nc1ncc(-c2nc(N3CCOCC3)c3sc(NS(=O)(=O)c4ccc(/C=C/C(=O)NO)cc4)cc3n2)cn1` [Compound 217, (E)-3-(4-(N-(2-(2-aminopyrimidin-5-yl)-4-morpholinothieno[3,2-d]pyrimidin-6-yl)sulfamoyl)phenyl)-N-hydroxyacrylamide] showed a melting point greater than 300 °C, an IC50 [1] of less than 100 nM and an IC50 [2] of less than 100 nM.

Work on `CNc1ncc(-c2nc(N3CCOCC3)c3sc(NCCCCC(=O)NO)cc3n2)cn1` [Compound 227, N-Hydroxy-5-(2-(2-(methylamino)pyrimidin-5-yl)-4-morpholinothieno[3,2-d]pyrimidin-6-ylamino)pentanamide] yielded a melting point of 206 to 210 °C, an IC50 [1] of less than 100 nM and an IC50 [2] of less than 100 nM.

`Cc1ncc(-c2nc(N3CCOCC3)c3sc(NCCCCC(=O)NO)cc3n2)cn1` [Compound 229, N-Hydroxy-5-(2-(2-methylpyrimidin-5-yl)-4-morpholinothieno[3,2-d]pyrimidin-6-ylamino)pentanamide] gave a melting point of 248 to 252 °C, an IC50 [1] of less than 100 nM and an IC50 [2] of less than 100 nM.

For `CN(Cc1cc2nc(-c3ccc(F)cc3)nc(N3CCOCC3)c2s1)c1ncc(C(=O)NO)cn1` [Compound 200, 2-(((2-(4-fluorophenyl)-4-morpholinothieno[3,2-d]pyrimidin-6-yl)methyl)(methyl)amino)-N-hydroxypyrimidine-5-carboxamide], the melting point was 168 to 170 °C, the IC50 [1] was greater than 10000 nM and the IC50 [2] was less than 100 nM.

`CN(Cc1cc2nc(-c3ccc(N)cc3F)nc(N3CCOCC3)c2s1)c1ncc(C(=O)NO)cn1` [Compound 283, 2-{[2-(4-Amino-2-fluoro-phenyl)-4-morpholin-4-yl-thieno[3,2-d]pyrimidin-6-ylmethyl]-methyl-amino}-pyrimidine-5-carboxylic acid hydroxyamide] gave a melting point of 195 to 197 °C, an IC50 [1] of 100 to 1000 nM and an IC50 [2] of less than 100 nM.

In the case of `CNc1ccc(-c2nc(N3CCOCC3)c3sc(CN(C)c4ncc(C(=O)NO)cn4)cc3n2)cc1` [Compound 151, N-hydroxy-2-(methyl((2-(4-(methylamino)phenyl)-4-morpholinothieno[3,2-d]pyrimidin-6-yl)methyl)amino)pyrimidine-5-carboxamide], the melting point is reported as 218 to 220 °C, the IC50 [1] is reported as greater than 10000 nM and the IC50 [2] is reported as less than 100 nM.

`O=C(NO)c1ccc(NCc2cc3nc(-c4cccc5[nH]ncc45)nc(N4CCOCC4)c3s2)cc1` [Compound 78, 4-((2-(1H-indazol-4-yl)-4-morpholinothieno[3,2-d]pyrimidin-6-yl)methylamino)-N-hydroxybenzamide] gave a melting point of 180 to 183 °C, an IC50 [1] of 100 to 1000 nM and an IC50 [2] of less than 100 nM.

Compound `CN(Cc1cc2nc(-c3cccc4c3CCN4)nc(N3CCOCC3)c2s1)c1ncc(C(=O)NO)cn1` [Compound 177, N-hydroxy-2-(((2-(indolin-4-yl)-4-morpholinothieno[3,2-d]pyrimidin-6-yl)methyl)(methyl)amino)pyrimidine-5-carboxamide] has a melting point of 146 to 156 °C, an IC50 [1] greater than 10000 nM and an IC50 [2] of less than 100 nM.

Work on `Nc1ncc(-c2nc(N3CCOCC3)c3sc(NCCCCC(=O)NO)cc3n2)cn1` [Compound 226] yielded a melting point of 175 to 180 °C, an IC50 [1] of less than 100 nM and an IC50 [2] of less than 100 nM.

Compound `Nc1ccc(-c2nc(N3CCOCC3)c3sc(CNc4ncc(C(=O)NO)cn4)cc3n2)cc1` [Compound 211, 2-((2-(4-aminophenyl)-4-morpholinothieno[3,2-d]pyrimidin-6-yl)methylamino)-N-hydroxypyrimidine-5-carboxamide] has a melting point of 217 to 223 °C, an IC50 [1] of 100 to 1000 nM and an IC50 [2] of less than 100 nM.

For `CN(Cc1cc2nc(-c3ccc(S(C)(=O)=O)cc3)nc(N3CCOCC3)c2s1)c1ncc(C(=O)NO)cn1` [Compound 149, N-hydroxy-2-(methyl((2-(4-(methylsulfonyl)phenyl)-4-morpholinothieno[3,2-d]pyrimidin-6-yl)methyl)amino)pyrimidine-5-carboxamide], the melting point was 206 to 208 °C, the IC50 [1] was greater than 10000 nM and the IC50 [2] was less than 100 nM.

`O=C(CCCCCCNCc1cc2nc(-c3cccc4[nH]ncc34)nc(N3CCOCC3)c2s1)NO` [Compound 44, 7-((2-(1H-indazol-4-yl)-4-morpholinothieno[3,2-d]pyrimidin-6-yl)methylamino)-N-hydroxyheptanamide] showed a melting point of 188 to 190 °C, an IC50 [1] of less than 100 nM and an IC50 [2] of 100 to 1000 nM.

In the case of `CC(=O)c1cc(-c2nc(N3CCOCC3)c3sc(CN(C)c4ncc(C(=O)NO)cn4)cc3n2)ccc1N` [Compound 281, 2-{[2-(3-Acetyl-4-amino-phenyl)-4-morpholin-4-yl-thieno[3,2-d]pyrimidin-6-ylmethyl]-methyl-amino}-pyrimidine-5-carboxylic acid hydroxyamide], the melting point is reported as 156 to 158 °C, the IC50 [1] is reported as 100 to 1000 nM and the IC50 [2] is reported as less than 100 nM.

In the case of `CC(=O)Nc1cccc(-c2nc(N3CCOCC3)c3sc(CN(C)c4ncc(C(=O)NO)cn4)cc3n2)c1` [Compound 107, 2-(((2-(3-acetamidophenyl)-4-morpholinothieno[3,2-d]pyrimidin-6-yl)methyl)(methyl)amino)-N-hydroxypyrimidine-5-carboxamide], the melting point is reported as 183 to 185 °C, the IC50 [1] is reported as 1000 to 10000 nM and the IC50 [2] is reported as less than 100 nM.

In the case of `COc1ccc(-c2nc(N3CCOCC3)c3sc(C(C)(C)N(C)c4ncc(C(=O)NO)cn4)cc3n2)cn1` [Compound 251, N-Hydroxy-2-((2-(2-(6-methoxypyridin-3-yl)-4-morpholinothieno[3,2-d]pyrimidin-6-yl)propan-2-yl)(methyl)amino)pyrimidine-5-carboxamide], the melting point is reported as 175 to 178 °C, the IC50 [1] is reported as 1000 to 10000 nM and the IC50 [2] is reported as less than 100 nM.

With `CN(C)c1ccc(-c2nc(N3CCOCC3)c3sc(CN(C)c4ncc(C(=O)NO)cn4)cc3n2)cc1` [Compound 152, 2-(((2-(4-(dimethylamino)phenyl)-4-morpholinothieno[3,2-d]pyrimidin-6-yl)methyl)(methyl)amino)-N-hydroxypyrimidine-5-carboxamide] the melting point was 208 to 210 °C, the IC50 [1] was greater than 10000 nM and the IC50 [2] was less than 100 nM.

With `CS(=O)(=O)N1CCN(Cc2cc3nc(-c4cccc5[nH]ncc45)nc(N4CCN(CCCCCCC(=O)NO)CC4)c3s2)CC1` [Compound 32, 7-(4-(2-(1H-indazol-4-yl)-6-((4-(methylsulfonyl)piperazin-1-yl)methyl)thieno[3,2-d]pyrimidin-4-yl)piperazin-1-yl)-N-hydroxyheptanamide] the melting point was 131 to 134 °C, the IC50 [1] was greater than 10000 nM and the IC50 [2] was 100 to 1000 nM.

For `CC(C)(C)CN(Cc1cc2nc(-c3cccc4[nH]ncc34)nc(N3CCOCC3)c2s1)c1ncc(C(=O)NO)cn1` [Compound 83, 2-(((2-(1H-indazol-4-yl)-4-morpholinothieno[3,2-d]pyrimidin-6-yl)methyl)(neopentyl)amino)-N-hydroxypyrimidine-5-carboxamide], the melting point was 240 to 242 °C, the IC50 [1] was 100 to 1000 nM and the IC50 [2] was 1000 to 10000 nM.

`COc1ccc(-c2nc(N3CCOCC3)c3sc(NCCCCCC(=O)NO)cc3n2)cn1` [Compound 233, 6-[2-(6-Methoxy-pyridin-3-yl)-4-morpholin-4-yl-thieno[3,2-d]pyrimidin-6-ylamino]-hexanoic acid hydroxyamide] gave a melting point of 125 to 130 °C, an IC50 [1] of less than 100 nM and an IC50 [2] of less than 100 nM.

In the case of `CNc1ccc(-c2nc(N3CCOCC3)c3sc(C(C)(C)Nc4ncc(C(=O)NO)cn4)cc3n2)cn1` [Compound 240, N-Hydroxy-2-(2-(2-(6-(methylamino)pyridin-3-yl)-4-morpholinothieno[3,2-d]pyrimidin-6-yl)propan-2-ylamino)pyrimidine-5-carboxamide], the melting point is reported as 200 to 205 °C, the IC50 [1] is reported as less than 100 nM and the IC50 [2] is reported as less than 100 nM.

For `COc1ccc(-c2nc(N3CCOCC3)c3sc(CN(C)c4ncc(C(=O)NO)cn4)cc3n2)cc1` [Compound 131, N-hydroxy-2-(((2-(4-methoxyphenyl)-4-morpholinothieno[3,2-d]pyrimidin-6-yl)methyl)(methyl)amino)pyrimidine-5-carboxamide], the melting point was 247 °C (dec.), the IC50 [1] was greater than 10000 nM and the IC50 [2] was less than 100 nM.

`CN(Cc1cc2nc(-c3cccc4[nH]ncc34)nc(N3CCOCC3)c2s1)c1ccc(/C=C/C(=O)NO)cc1` [Compound 81, (E)-3-(4-(((2-(1H-indazol-4-yl)-4-morpholinothieno[3,2-d]pyrimidin-6-yl)methyl)(methyl)amino)phenyl)-N-hydroxyacrylamide] gave a melting point of 188 to 190 °C, an IC50 [1] of less than 100 nM and an IC50 [2] of 1000 to 10000 nM.
